Assay results taken from PMC8113213, “Physiologically based kinetic modelling based prediction of in vivo rat and human acetylcholinesterase (AChE) inhibition upon exposure to diazinon” (Archives of Toxicology, 2021).
Like-named read-outs stand apart in the source and are kept apart here.

Legend:
[1] = rat; ref Poet et al. 2004; cited from earlier work
[2] = human; ref Garfitt et al. 2002; Poet et al. 2004; cited from earlier work
[3] = Unbound fraction in the in vitro medium by rapid equilibrium dialysis (RED); type: in vitro ADME
Protocol: To assess whether this assumption is reasonable, the fuDZOin vitro was determined. This was done using rapid equilibrium dialysis (RED) performed in line with the manufacturer’s protocol (Thermo Fisher Scientific [2012]). […] The whole device was then incubated for 5 h at 37℃ on a shaker at 250 rmp to reach equilibrium. Then 50 µl of post-incubation sample were separately collected from the sample and buffer chambers into the corresponding Eppendorf tubes. After this 50 µl of PBS buffer was added to the sample taken from the sample chamber and 50 µl of in vitro medium was added to the sample taken from buffer chamber and subsequently 300 µl ice-cold 90% acetonitrile (ACN/water, v/v) were added to both samples to precipitate the protein. All samples were put on ice for 30 min, followed by centrifugation for 30 min at 15,000g. The supernatants were collected for LC–MS/MS analysis of the amount of DZO.

[4] = biological target: T1, recombinant human AChE (rhAChE) (Homo sapiens, UniProt P22303); assay: biochemical
T1 construct: purchased Sigma-Aldrich Co
T1 sequence (P22303 32-614): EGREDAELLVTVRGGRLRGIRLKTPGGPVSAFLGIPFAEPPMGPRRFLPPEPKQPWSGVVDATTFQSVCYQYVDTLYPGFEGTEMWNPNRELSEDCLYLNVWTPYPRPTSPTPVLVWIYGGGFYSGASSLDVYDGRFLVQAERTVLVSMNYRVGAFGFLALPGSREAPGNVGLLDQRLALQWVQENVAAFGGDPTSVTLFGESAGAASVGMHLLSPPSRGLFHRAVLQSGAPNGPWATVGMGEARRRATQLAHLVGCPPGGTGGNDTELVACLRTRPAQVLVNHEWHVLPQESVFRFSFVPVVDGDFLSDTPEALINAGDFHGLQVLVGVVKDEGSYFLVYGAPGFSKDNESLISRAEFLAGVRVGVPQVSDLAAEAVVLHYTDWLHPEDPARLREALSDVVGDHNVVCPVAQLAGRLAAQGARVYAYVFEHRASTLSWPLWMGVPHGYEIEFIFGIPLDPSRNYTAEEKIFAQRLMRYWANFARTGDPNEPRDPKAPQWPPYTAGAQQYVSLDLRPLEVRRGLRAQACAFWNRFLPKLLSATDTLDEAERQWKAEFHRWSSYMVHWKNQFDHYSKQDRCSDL
Protocol: (§1) However, since recombinant rat AChE was not commercially available, extracted rat RBC AChE was used. […] The concentration of DTNB was calculated based on the concentration ratio (ATC/DTNB) of 2 (Stern et al. [2014]). […] To initiate the inhibition reaction, 1 µl rhAChE or rat AChE (final concentration 0.6 mU/ml) was added to the incubation. The total incubation volume was 50 µl. After 15 min incubation at 37℃, 150 µl reaction reagents (mixture of ATC at a final concentration of 150 µM and DTNB at a final concentration of 75 µM) were added into each well. The final total volume of each well was 200 µl. Subsequently, the 96-well plate was measured continuously for 10 min at absorbance 412 nm at 37℃ to quantify the remaining AChE activity.
(§2) The rhAChE and rat AChE activity were expressed as the remaining AChE activity relative to solvent control (100% activity) and positive control (0% activity) based on Eq. (2):2 AChEactivity\%=A412t10-t0testcompound-A412t10-t0positivecontrol/A412t10-t0solventcontrol-A412t10-t0positivecontrol×100\% , where the A412(t10 − t0)test compound is the change in the absorbance at A412 nm between 0 and 10 min for the test compound, the A412(t10 − t0)positive control is the change in the absorbance at A412 nm between 0 and 10 min for the CPO sample, and the A412(t10 − t0)solvent control is the change in the absorbance at A412nm between 0 and 10 min for the 0.2% ethanol sample.

[5] = biological target: T2, PON1 (Homo sapiens, UniProt P27169); assay: in vitro; type: in vitro ADME; settings: for Km: pH 7.4
T2 construct: 1 µl of human or rat liver microsomes (final concentration 0.1 mg microsomal protein/ml); tissue Corning; host or cells: human liver microsomes, pooled from 20 donors
T2 sequence (P27169 whole entry): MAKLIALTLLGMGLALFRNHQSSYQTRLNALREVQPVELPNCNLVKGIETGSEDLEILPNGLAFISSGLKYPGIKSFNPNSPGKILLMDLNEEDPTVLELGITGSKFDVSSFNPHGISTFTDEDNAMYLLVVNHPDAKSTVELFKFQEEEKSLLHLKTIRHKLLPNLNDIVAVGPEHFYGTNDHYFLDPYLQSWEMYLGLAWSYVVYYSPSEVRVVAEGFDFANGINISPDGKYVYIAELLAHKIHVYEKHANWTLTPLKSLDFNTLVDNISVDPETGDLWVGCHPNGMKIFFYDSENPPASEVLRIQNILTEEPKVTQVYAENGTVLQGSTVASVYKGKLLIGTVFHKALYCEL
Protocol: (§3) Preliminary studies were carried to optimize and select the incubation conditions with respect to linearity for both incubation time and microsomal/plasma protein concentration (data not shown). […] After 1 min preincubation in a 37 °C water bath, 1 µl of human or rat liver microsomes (final concentration 0.1 mg microsomal protein/ml), or 1 µl of human or rat plasma (final concentration 0.385 mg plasma protein/ml for human plasma and 0.300 mg plasma protein/ml for rat plasma) was added to initiate the reaction. The total incubation mixture was 200 µl. Control incubations were carried out by replacing liver microsomes or plasma with buffer. The reaction was terminated after 1 min incubation (human samples) or 2 min incubation (rat samples) by adding 200 µl ice-cold ACN. Subsequently, samples were centrifuged at 16000 g (4℃) for 5 min, and supernatants were further diluted (30 × for liver sample and 40 × for plasma sample) in a mixture of ACN and 50 mM Tris–HCl (pH 7.4) (ratio 1:1, v/v) before analysis by LC–MS/MS for quantification of metabolite formation.
(§4) The chromatographic separations were conducted on a Kinetex® 1.7 µm Phenyl-Hexyl 100 Å LC column (100 × 2.1 mm). The injection volume was 1 µl at a flow rate of 0.3 ml/min. The temperature of the column was kept at 40℃. The mobile phase A consisted of ultrapure water with 0.1% (v/v) formic acid, and mobile phase B consisted of acetonitrile (ACN) with 0.1% (v/v) formic acid. […] The instrument was used in positive mode with multiple reaction monitoring (MRM). The optimized acquisition parameters for DZN, DZO and the metabolite IMHP are listed in Supplementary data I.
(§5) The calculation was done using GraphPad Prism 5 for Windows, version 5.04 (GraphPad software, San Diego California USA).

[6] = biological target: T3, rat RBC AChE (Rattus norvegicus, UniProt P37136); assay: In vitro AChE inhibition assay (Ellman) with extracted rat RBC AChE; type: biochemical; settings: rat; IC50 DZO/IC50 DZN, TEF of DZO set at 1.0
T3 construct: the membrane fraction (containing AChE) was sedimented by centrifugation at 20,000g for 40 min; tissue BioIVT; host or cells: rat red blood cell membranes (from whole blood)
T3 sequence (P37136 other isoform, or with tags, fused parts or gaps): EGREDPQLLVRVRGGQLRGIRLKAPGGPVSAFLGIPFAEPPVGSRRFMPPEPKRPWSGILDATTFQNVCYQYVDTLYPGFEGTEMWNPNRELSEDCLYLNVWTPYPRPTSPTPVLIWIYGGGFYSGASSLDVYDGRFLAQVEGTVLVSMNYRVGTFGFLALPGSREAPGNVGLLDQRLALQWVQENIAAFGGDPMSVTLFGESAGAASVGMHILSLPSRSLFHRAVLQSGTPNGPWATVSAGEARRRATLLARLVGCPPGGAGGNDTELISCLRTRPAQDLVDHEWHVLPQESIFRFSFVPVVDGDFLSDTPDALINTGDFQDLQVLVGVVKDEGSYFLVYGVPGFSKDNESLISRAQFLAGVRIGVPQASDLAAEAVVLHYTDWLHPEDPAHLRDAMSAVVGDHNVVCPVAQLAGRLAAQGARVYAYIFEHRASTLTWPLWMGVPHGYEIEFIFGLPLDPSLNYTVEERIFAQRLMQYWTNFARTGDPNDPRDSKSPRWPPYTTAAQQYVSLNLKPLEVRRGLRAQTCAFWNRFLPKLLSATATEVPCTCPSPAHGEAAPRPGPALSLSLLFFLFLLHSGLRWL
Protocol: as §1, §2

[7] = biological target: T4, PON1 (Rattus norvegicus, UniProt P55159); assay: in vitro; type: in vitro ADME; set-up: 1 µl of human or rat liver microsomes (final concentration 0.1 mg microsomal protein/ml); tissue Corning; host or cells: rat liver microsomes (Sprague–Dawley, male); settings: for Km: pH 7.4
T4 sequence (P55159 whole entry): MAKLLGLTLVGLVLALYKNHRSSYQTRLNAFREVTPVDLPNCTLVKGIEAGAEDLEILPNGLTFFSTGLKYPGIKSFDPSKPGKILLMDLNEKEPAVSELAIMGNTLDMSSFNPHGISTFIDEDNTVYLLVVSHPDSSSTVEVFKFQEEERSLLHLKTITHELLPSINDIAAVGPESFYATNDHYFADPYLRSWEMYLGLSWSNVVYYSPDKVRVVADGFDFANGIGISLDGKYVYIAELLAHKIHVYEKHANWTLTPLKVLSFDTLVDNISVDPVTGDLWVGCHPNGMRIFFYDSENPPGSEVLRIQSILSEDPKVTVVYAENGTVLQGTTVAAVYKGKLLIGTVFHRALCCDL
Protocol: as §3, §4, §5

[8] = biological target: T4, PON1; settings: ref Makhaeva et al. 2009; cited from earlier work

**Q.** Which results are given for `CCOP(=O)(O)OCC` [DEP, diethylphosphate]?
**A.** Ke, elimination into the urine [1]: 0.29 h⁻¹; Ke, elimination into the urine [2]: 12 h⁻¹

**Q.** Which results are given for `CCOP(O)(=S)OCC` [DETP, diethylthiophosphate]?
**A.** Ke, elimination into the urine [1]: 0.29 h⁻¹; Ke, elimination into the urine [2]: 12 h⁻¹

**Q.** What does the source list for `CCOP(=O)(OCC)Oc1cc(C)nc(C(C)C)n1` [DZO, Diazoxon]?
**A.** recovery at 5 h, 0.05 µM ([3]; in vitro medium in a RED insert device, read-out: recovery rate of post-dialysis in the in vitro medium): 74%; fraction unbound at 5 h, 0.05 µM ([3]; in vitro medium with 0.1 mg/ml BSA, read-out: unbound fraction in the in vitro medium (fu in vitro)): 0.96; toxic equivalency factor (TEF) ([4]; human, IC50 DZO/IC50 DZN, TEF of DZO set at 1.0): 1.0; IC50 ([4]; rhAChE, 15 min incubation at 37℃, read-out: IC50 for inhibition of AChE activity): 44 nM; Vmax DZO to IMHP, plasma [5]: 124.000 nmol/min/mg plasma protein; Vmax DZO to IMHP, liver ([5]; human liver microsomes): 53.490 nmol/min/mg microsomal protein; Km ([5]; human liver microsomes): 557 µM; Km ([5]; human plasma): 701 µM; toxic equivalency factor (TEF) [6]: 1.0; Km ([7]; rat liver microsomes): 668 µM; Km ([7]; rat plasma): 536 µM; Vmax DZO to IMHP, liver ([7]; rat liver microsomes): 691.100 nmol/min/mg microsomal protein; Vmax DZO to IMHP, plasma ([7]; rat plasma): 431.400 nmol/min/mg plasma protein; PON1-mediated conversion of DZO faster in rat liver than in human liver ([7]; rat versus human liver): 10.7 fold; higher Vmax of PON1-mediated conversion in rat liver ([7]; rat versus human liver): 12.9 fold; PON1-mediated conversion of DZO faster in rat plasma than in human plasma ([7]; rat versus human plasma): 4.5 fold; higher Vmax of PON1-mediated conversion in rat plasma ([7]; rat versus human plasma): 3.5 fold

**Q.** Which results are given for `Cc1cc(=O)nc(C(C)C)[nH]1` [IMHP, 2-isopropyl-4-methyl-6-hydroxypyrimidine]?
**A.** Ke, elimination into the urine [1]: 0.29 h⁻¹; Ke, elimination into the urine [2]: 12 h⁻¹

**Q.** Which “faster PON1-mediated hydrolysis by rat than human plasma samples” value [8] does the source give for `CCOP(=O)(OCC)Oc1ccc([N+](=O)[O-])cc1` [paraoxon] here?
**A.** approximately 4 fold
